Assay results as given in patent publication US11458127B2, “Methods of treating brain tumors using combination therapy” (SERVIER PHARMACEUTICALS LLC, priority 2017, dated 2022).
Where two headings read alike, the source gives them in different places.

Tests used:
mutant IDH1 (mIDH1) = conditions: cited from earlier work
mutant IDH2 (mIDH2) = conditions: cited from earlier work
mIDH1-driven gliomas = conditions: some model systems; D. Rohle et al. 2013; cited from earlier work
mIDH1 cells = conditions: in vitro; R. J. Molenaar et al. 2015; cited from earlier work
mutant IDH1 proteins [1] = conditions: biochemical assays; cited from earlier work
mutant IDH1 proteins [2] = conditions: cellular assays; cited from earlier work
2HG production = experiment: animal or person; conditions: po, read-out: Inhibition of 2HG production within the brain tumors
Method: Ivosidenib was orally dosed at 150 mg/kg, twice daily, for Groups 3-5.

Cc1ccccc1C(C(=O)NC1CCCCC1)N(C(=O)Cn1ccnc1C)c1cccc(F)c1 (stereo not shown) [AGI-5198]
Inhibition of mutant IDH1 (mutant IDH1 (mIDH1)): inhibit mutant IDH1 (mIDH1)
Inhibition of mutant IDH2 (mutant IDH2 (mIDH2)): not mutant IDH2 (mIDH2)
Effect on growth of mIDH1-driven gliomas (mIDH1-driven gliomas): can repress growth of mIDH1-driven gliomas in some model systems
Sensitivity of treated mIDH1 cells to radiation therapy (mIDH1 cells): desensitized to radiation therapy

N#Cc1ccnc(N2C(=O)CC[C@H]2C(=O)N(c2cncc(F)c2)[C@H](C(=O)NC2CC(F)(F)C2)c2ccccc2Cl)c1 [Ivosidenib, (S)—N—((S)-1-(2-Chlorophenyl)-2-(3,3-difluorocyclobutylamino)-2-oxoethyl)-1-(4-cyanopyridin-2-yl)-N-(5-fluoropyridin-3-yl)-5-oxopyrrolidine-2-carboxamide]
Activity on mutant IDH1 proteins (mutant IDH1 proteins [1]): inhibitor of mutant IDH1 proteins
Activity on mutant IDH1 proteins (mutant IDH1 proteins [2]): inhibitor of mutant IDH1 proteins
inhibition at 150 mg/kg (2HG production): > 98%
